Data on 6 compounds can be found in ChEMBL document CHEMBL1201862, “PubChem BioAssay data set” (2004).

Data set [1] in a line: NIH-3T3 fibroblast cytotoxicity, dose response, cytotoxicity control, cell-based, fluorescence, Alamar Blue, secondary assay (AID 2327).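 Further: NIH-3T3 mouse fibroblasts cultured with fluconazole at 8 µg/mL.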 It counts as functional. On the technique in general: Resazurin is reduced to fluorescent resorufin, in cell work by metabolically active cells.
The target of data set [2] is T1, Serine/threonine-protein phosphatase (Candida dubliniensis (strain CD36 / CBS 7987 / NCPF 3949 / NRRLY-17841) (Yeast), UniProt B9W6M3).
T1 sequence (B9W6M3 whole entry): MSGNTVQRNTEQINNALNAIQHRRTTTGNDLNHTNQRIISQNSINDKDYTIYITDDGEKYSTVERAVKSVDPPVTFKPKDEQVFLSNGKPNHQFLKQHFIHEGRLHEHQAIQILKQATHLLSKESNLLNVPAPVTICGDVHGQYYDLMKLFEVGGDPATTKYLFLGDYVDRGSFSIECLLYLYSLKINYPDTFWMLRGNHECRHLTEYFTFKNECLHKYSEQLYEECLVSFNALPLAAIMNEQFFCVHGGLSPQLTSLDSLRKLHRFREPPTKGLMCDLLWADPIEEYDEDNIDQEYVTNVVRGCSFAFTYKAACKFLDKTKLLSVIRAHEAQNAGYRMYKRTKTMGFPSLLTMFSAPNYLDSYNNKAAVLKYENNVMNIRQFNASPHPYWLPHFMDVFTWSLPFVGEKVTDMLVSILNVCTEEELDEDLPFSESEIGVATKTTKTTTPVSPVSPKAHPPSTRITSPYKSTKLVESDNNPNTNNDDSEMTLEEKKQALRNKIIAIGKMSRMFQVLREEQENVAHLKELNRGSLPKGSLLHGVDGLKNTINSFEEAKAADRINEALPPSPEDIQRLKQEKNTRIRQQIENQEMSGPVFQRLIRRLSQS
Kind of data set: calcineurin pathway inhibitors in yeast reporter, dose response, S. cerevisiae, CDRE-lacZ, luminescence, secondary (AID 2388).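 Further: yeast reporter cells carrying a calcineurin-responsive lacZ construct stimulated with calcium chloride; luminescent beta-galactosidase reporter signal in whole cells rather than isolated phosphatase activity; potency for inhibition where a drop in reporter signal means calcineurin blockade.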 Type of data set: functional, cell-based.

Data set [3] in a line: insulin promoter down-regulators in MIN6 cells, imaging, high-content screening, mouse beta cells (AID 1628). It counts as functional.
Data set [4] deals with ATP-dependent molecular chaperone HSP82 (Candida albicans (strain WO-1) (Yeast), UniProt C4YTQ8). Kind of data set: loss of DOC-induced GRE-beta-galactosidase reporter signal, dose response, Hsp90 inhibitor project, S. cerevisiae, luminescence (AID 2400).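 Further: beta-galactosidase luminescence from glucocorticoid response element reporter as proxy for Hsp90 function; inhibitor potency where signal loss means Hsp90 inhibition.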 Type of data set: functional, cell-based.
Chain of ATP-dependent molecular chaperone HSP82 (C4YTQ8 whole entry): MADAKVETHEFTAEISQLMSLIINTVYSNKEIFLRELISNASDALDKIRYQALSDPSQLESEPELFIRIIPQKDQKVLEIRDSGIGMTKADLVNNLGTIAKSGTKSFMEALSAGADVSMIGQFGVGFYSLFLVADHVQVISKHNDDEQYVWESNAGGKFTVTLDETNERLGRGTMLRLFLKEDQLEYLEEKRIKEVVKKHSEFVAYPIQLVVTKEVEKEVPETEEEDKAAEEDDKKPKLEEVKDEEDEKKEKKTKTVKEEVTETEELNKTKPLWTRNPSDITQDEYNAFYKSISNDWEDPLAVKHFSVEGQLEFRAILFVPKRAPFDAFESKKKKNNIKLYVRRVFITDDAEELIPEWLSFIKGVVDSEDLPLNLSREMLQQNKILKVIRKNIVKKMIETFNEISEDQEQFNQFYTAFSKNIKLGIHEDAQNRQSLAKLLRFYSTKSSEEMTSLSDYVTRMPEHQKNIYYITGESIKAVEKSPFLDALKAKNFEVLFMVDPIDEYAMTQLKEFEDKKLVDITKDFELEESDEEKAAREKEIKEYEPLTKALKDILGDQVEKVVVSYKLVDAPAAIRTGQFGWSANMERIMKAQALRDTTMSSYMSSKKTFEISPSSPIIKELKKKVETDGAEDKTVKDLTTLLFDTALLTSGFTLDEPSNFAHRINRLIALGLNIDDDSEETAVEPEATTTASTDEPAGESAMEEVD
Data set [5] is described as follows: cytotoxicity in MIN6 insulinoma cells, dose response, cytotoxicity control, cell-based, mouse insulinoma (AID 2122).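 Further: confirmatory high-throughput counterscreen run to flag cytotoxic compounds; mouse MIN-6 beta cells carrying an insulin promoter eGFP reporter.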 It counts as functional.
The test system of a further data set is INS1. The experiment in a line: beta cell apoptosis inhibitors, cytokine rescue, dose response, luminescence, retest (AID 449756).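 Further: cell death triggered by IL-1 beta plus TNF-alpha plus IFN-gamma mixture; protective hits raise ATP signal compared with cytokine alone wells.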 To be noted: Rattus norvegicus. Type of data set: functional, cell-based.
The nature of data set [6]: C. albicans growth with fluconazole, confirmation, fluorescence, retest (AID 2467). Type of data set: functional, cell-based.
Data set [7] can be described thus: growth induction of Burl-1 ts yeast mutant, dose response, counter-screen for SUMOylation pathway inhibitor project, whole organism, S. cerevisiae, luminescence (AID 463199). It counts as functional.
A further data set addresses T2, ORF 73 (Human herpesvirus 8, UniProt O40947).
T2 sequence (O40947 whole entry): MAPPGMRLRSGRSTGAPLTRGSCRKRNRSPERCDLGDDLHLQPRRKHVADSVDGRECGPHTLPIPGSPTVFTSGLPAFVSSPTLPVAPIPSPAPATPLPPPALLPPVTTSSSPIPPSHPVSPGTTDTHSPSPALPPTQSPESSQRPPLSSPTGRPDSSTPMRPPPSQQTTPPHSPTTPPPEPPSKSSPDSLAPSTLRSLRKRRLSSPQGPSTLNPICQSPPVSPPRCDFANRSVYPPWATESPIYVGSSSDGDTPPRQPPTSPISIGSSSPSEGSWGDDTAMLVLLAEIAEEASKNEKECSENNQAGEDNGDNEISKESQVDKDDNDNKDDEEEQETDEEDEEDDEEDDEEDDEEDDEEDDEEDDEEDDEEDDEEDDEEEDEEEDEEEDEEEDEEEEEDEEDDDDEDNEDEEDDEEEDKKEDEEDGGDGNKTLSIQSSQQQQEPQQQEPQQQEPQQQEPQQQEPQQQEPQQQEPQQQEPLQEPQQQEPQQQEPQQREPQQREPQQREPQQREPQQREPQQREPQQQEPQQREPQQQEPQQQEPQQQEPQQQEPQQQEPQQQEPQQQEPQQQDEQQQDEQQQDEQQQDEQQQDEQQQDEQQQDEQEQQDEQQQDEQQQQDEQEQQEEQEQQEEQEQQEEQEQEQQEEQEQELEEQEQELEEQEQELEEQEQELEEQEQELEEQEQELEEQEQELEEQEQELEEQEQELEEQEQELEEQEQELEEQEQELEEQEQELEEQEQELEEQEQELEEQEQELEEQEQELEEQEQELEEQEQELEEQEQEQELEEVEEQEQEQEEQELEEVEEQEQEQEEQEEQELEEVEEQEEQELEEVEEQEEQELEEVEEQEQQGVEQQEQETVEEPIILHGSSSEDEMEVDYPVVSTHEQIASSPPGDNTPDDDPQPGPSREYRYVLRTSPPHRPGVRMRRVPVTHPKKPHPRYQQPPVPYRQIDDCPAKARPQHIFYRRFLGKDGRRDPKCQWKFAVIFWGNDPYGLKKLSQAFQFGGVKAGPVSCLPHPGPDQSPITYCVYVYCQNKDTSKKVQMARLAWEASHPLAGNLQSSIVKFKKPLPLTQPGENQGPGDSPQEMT
Kind of data set: inhibitors of C-LANA binding to LBS DNA, dose response, biochemical, fluorescence polarization, cherry-picked samples (AID 504725).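 Further: fluorescence polarization of a labeled DNA duplex reporting LANA DNA binding; potency is for inhibitors that block LANA binding to the DNA.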 On the set-up: species or system Human gammaherpesvirus 8.

Data set [8] has as its target Beta-lactamase (Salmonella choleraesuis (strain SC-B67), UniProt Q5J463).
A further data set concerns the target Keap1/Nrf2 (Homo sapiens, UniProt Q14145). Kind of data set: Keap1-Nrf2 protein-protein interaction inhibitors, dose response, biochemical, fluorescence polarization, cherry-picked samples (AID 588683). A general note: Polarisation of emitted light reports the rotation of a fluorescent probe.
Data set [9] deals with T3, Voltage-gated N-type calcium channel alpha-1B subunit/Amyloid beta A4 precursor protein-binding family A member 1 (Homo sapiens, UniProt Q00975+Q02410). Type of data set: protein assay.
T3 sequence (Q00975 whole entry): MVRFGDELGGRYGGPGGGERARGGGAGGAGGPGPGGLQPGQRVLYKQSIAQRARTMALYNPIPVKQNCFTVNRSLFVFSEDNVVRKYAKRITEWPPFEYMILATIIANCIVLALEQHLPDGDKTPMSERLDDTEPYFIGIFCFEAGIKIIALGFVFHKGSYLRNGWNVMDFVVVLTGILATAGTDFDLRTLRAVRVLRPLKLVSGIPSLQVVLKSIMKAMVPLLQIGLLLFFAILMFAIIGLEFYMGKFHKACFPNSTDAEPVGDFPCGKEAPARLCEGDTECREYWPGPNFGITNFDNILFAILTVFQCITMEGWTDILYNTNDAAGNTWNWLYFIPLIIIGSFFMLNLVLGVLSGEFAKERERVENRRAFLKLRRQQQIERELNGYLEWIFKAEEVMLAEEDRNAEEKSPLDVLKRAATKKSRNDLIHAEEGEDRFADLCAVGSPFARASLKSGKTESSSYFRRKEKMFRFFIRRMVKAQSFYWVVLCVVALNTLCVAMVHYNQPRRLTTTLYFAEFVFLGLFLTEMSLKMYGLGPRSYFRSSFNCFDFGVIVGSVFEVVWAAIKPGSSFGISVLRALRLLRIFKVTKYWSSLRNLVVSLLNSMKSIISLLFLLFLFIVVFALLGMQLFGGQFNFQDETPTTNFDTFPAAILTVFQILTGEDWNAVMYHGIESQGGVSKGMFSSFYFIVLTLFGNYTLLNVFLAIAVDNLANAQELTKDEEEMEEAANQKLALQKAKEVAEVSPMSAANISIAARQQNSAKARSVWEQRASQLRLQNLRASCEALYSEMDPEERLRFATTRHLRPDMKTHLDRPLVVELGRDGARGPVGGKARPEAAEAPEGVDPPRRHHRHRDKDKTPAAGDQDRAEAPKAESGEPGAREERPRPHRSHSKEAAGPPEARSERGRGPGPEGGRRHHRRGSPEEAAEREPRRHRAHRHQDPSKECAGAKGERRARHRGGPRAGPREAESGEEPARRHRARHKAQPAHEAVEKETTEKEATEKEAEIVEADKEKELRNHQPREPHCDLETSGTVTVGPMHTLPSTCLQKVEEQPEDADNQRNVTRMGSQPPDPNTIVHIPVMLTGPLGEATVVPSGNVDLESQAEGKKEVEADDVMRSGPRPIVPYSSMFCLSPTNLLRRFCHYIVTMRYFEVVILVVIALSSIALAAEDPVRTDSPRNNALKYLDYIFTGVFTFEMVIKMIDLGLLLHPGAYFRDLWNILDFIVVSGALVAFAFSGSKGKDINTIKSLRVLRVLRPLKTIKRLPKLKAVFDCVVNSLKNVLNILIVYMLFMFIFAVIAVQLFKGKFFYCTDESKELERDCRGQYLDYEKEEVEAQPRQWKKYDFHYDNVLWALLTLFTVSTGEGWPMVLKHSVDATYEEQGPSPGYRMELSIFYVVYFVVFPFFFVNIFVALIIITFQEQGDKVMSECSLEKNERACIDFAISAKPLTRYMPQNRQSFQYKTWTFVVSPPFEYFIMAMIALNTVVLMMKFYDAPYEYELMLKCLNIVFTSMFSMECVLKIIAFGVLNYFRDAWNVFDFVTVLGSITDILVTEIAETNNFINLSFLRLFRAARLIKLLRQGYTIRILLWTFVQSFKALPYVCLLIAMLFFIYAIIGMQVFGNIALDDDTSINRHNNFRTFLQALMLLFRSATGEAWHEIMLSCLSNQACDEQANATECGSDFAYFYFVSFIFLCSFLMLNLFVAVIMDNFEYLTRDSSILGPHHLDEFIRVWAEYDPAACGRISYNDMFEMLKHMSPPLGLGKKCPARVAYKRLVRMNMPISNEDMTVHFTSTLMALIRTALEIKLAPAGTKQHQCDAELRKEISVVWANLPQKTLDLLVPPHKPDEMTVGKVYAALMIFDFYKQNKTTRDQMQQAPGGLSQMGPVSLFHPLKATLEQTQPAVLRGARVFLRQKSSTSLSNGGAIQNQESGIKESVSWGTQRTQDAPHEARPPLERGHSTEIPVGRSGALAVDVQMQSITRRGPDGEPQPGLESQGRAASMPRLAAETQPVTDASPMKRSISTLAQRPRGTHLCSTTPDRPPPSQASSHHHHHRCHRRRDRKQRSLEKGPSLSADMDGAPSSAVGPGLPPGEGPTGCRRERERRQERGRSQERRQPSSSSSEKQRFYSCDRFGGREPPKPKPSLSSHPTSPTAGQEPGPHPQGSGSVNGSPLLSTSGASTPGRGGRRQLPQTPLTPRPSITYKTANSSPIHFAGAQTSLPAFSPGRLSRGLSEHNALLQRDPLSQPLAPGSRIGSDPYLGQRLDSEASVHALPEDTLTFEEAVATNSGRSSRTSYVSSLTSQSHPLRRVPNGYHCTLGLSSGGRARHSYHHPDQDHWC
T3 sequence (Q02410 whole entry): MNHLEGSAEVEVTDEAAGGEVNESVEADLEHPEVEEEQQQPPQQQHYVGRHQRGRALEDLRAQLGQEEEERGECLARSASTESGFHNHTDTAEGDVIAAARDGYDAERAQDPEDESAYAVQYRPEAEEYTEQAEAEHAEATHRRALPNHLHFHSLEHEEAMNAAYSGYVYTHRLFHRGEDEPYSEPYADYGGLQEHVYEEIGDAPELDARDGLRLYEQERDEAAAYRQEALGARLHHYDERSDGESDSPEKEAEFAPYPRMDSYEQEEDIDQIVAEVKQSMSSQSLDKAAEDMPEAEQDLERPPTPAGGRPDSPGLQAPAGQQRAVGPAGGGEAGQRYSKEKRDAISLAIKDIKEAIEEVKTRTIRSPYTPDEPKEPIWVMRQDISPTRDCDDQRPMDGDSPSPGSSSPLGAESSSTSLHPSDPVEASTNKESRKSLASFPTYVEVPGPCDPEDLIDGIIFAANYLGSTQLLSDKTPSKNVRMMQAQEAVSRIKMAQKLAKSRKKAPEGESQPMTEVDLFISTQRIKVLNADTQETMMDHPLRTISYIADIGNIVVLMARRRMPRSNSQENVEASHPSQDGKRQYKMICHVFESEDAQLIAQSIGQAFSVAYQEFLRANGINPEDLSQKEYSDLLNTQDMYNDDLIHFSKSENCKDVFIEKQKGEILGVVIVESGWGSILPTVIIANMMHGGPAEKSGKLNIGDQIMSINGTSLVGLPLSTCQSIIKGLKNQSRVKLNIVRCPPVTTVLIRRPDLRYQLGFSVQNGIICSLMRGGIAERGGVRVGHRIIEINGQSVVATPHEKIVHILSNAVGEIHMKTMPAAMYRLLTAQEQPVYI
Data set [10] concerns the target T3, Voltage-gated N-type calcium channel alpha-1B subunit/Amyloid beta A4 precursor protein-binding family A member 1. Type of data set: protein assay. This is another data set of the same source.
The target in data set [11] is Beta-lactamase (Pseudomonas aeruginosa, UniProt Q79MP6).
Data set [12] deals with UDP-galactopyranose mutase (Mycobacterium tuberculosis, UniProt P9WIQ1). Kind of data set: Inhibitors of Mycobacterium tuberculosis UDP-galactopyranose mutase (UGM) enzyme Measured in Biochemical System Using Plate Reader - 2105-02_Inhibitor_Dose_CherryPick_Activity. [Related pubchem assays (depositor defined):AID504439].
Data set [13] concerns the target Intestinal-type alkaline phosphatase (Mus musculus, UniProt P24822). The experiment in a line: PubChem AID 488874. Type of data set: functional.
The target of data set [14] is T4, Intestinal-type alkaline phosphatase (Homo sapiens, UniProt P09923). The experiment in a line: human intestinal alkaline phosphatase activators, dose response, biochemical, luminescence, uHTS hits (AID 463120). Type of data set: functional.
T4 sequence (P09923 whole entry): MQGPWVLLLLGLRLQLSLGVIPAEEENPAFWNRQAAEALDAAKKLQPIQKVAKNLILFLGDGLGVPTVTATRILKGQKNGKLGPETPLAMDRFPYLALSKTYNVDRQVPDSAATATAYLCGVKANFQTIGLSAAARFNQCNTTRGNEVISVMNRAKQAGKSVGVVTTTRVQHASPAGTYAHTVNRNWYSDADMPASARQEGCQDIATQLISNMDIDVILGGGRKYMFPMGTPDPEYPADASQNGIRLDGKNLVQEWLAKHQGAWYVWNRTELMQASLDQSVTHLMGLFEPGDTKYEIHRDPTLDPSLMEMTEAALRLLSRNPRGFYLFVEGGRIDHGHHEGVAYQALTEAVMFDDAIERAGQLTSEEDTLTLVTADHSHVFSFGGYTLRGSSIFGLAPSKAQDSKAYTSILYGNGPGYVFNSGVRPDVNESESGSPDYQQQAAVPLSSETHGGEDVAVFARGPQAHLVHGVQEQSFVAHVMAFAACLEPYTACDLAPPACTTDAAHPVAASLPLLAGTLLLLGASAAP
Data set [15] addresses T5, Alkaline phosphatase, tissue-nonspecific isozyme (Homo sapiens, UniProt P05186).
T5 sequence (P05186 whole entry): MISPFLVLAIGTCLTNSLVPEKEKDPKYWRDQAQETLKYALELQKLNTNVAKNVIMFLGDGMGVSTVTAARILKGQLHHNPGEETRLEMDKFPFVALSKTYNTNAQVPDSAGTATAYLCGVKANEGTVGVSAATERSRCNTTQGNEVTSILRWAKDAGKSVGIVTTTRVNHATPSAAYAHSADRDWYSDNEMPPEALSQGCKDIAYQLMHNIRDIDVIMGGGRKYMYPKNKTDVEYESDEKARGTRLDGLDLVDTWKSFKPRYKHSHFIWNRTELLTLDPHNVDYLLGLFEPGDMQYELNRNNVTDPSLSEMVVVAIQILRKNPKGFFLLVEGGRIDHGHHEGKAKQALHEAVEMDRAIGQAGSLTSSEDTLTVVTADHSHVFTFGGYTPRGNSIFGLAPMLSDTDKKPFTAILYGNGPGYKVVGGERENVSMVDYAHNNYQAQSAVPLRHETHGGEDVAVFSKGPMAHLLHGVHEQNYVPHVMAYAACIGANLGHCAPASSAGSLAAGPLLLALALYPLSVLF
Kind of data set: TNAP enzyme activators, dose response, selectivity assay for human IAP activator project, biochemical, TNAP isozyme, human IAP uHTS hits (AID 488886).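 Further: potency of compounds raising TNAP activity as a selectivity check on IAP activators.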 Type of data set: functional.

For data set [16], the target named is T4, Intestinal-type alkaline phosphatase. The experiment in a line: human IAP activators, dose response, biochemical, luminescent, uHTS hits, set 2 (AID 488817).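 Further: potency of activators that raise enzyme activity.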 Type of data set: functional.
For a further data set, the target named is fMet-Leu-Phe receptor (Homo sapiens, UniProt P21462). Kind of data set: FPR ligands, dose response (AID 519). Type of data set: functional.
A further data set deals with Cytochrome P450 3A4 (Homo sapiens, UniProt P08684).
For another data set, the target named is Cytochrome P450 2D6 (Homo sapiens, UniProt P10635).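 Further: CYP2D6 member of a cytochrome P450 panel assay.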
The target of another data set is Cytochrome P450 2C9 (Homo sapiens, UniProt P11712).
The target in a further data set is Cytochrome P450 2C19 (Homo sapiens, UniProt P33261). Kind of data set: Cytochrome panel assay with activity outcomes. Panel member name: p450-cyp2c19 Compounds with AC50 equal or less than 10 uM are considered active. Type of data set: functional. The following applies: read-out: AC50.
Chain of Cytochrome P450 2C19 (P33261 whole entry): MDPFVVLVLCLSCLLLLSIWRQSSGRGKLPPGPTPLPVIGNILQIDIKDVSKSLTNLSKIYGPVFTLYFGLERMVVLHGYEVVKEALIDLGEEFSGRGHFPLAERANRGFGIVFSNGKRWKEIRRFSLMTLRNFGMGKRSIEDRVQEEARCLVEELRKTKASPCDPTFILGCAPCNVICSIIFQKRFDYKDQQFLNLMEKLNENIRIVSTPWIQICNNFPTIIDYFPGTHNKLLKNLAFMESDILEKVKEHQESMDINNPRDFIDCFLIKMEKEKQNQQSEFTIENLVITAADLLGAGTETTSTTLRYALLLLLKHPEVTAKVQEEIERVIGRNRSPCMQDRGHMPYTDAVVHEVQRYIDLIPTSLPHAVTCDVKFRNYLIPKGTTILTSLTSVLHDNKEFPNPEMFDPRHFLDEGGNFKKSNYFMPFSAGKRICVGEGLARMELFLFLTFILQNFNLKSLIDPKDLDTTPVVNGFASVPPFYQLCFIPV
A further data set has as its target T6, Cytochrome P450 1A2 (Homo sapiens, UniProt P05177).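 Further: PubChem cytochrome P450 panel assay, CYP1A2 panel member.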
T6 sequence (P05177 whole entry): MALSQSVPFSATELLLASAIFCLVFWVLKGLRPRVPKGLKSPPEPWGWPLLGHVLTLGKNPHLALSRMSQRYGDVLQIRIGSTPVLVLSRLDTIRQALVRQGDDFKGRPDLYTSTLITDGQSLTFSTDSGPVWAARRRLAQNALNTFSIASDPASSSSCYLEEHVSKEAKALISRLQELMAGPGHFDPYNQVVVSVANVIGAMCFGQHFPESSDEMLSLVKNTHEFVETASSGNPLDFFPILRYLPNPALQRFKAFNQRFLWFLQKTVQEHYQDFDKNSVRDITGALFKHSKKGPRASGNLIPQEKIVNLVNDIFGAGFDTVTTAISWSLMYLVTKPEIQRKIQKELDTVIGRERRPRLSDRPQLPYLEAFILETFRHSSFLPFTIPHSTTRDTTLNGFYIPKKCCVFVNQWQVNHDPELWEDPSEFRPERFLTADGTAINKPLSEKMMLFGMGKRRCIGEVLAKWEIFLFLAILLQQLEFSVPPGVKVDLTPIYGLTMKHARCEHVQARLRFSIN

Structures are written as SMILES. Activity calls are given as the source filed them.

For orientation: EC50 means the concentration that produces a half-maximal response. As a reminder, the IC50 is the concentration needed to halve the response being measured. The AC50 is the concentration at which the activity in the assay is half-maximal. `CCCCCCC[n+]1ccc(-c2cc[n+](CCCCCCC)cc2)cc1`: the EC50 in data set [1] is 64.9 µM (active); in data set [2], > 180 µM (inactive); in data set [4] it was > 160 µM (inactive); in data set [6], 0.055 µM (active). Also, the IC50 was 2.74 µM (active) in [3] and 3.65 µM (active) in data set [5]. Also, the AC50 with INS1 is 0.22 µM (active).
As for `CCC1SC2=NC(C)=C(C(=O)OCCOC)C(c3ccc(C(=O)OC)cc3)N2C1=O` (stereo not given), the concentration at half-maximal activity (AC50) in [7] is 50.8 µM (active).
With `CCCCn1c(=O)[nH]c2nc3cc(N)ccc3nc2c1=O`, the values for the AC50 (at ORF 73; on Keap1/Nrf2; in [12]) were 2.4 µM (active), 3.52 µM (active) and 2.42 µM (active), respectively. Further, the 50% inhibitory concentration (IC50) was 7.87 µM (active) at Beta-lactamase [8], 19.1 µM (active) in [9], > 50 µM (inactive) in data set [10] and 20.7 µM (inactive) at Beta-lactamase [11].
As to `CCC(C)(C)C1CCc2n[nH]c(C(=O)N/N=C(\C)c3ccco3)c2C1` (stereo not given), in [13], the IC50 was > 100 µM (inactive). The concentration giving a half-maximal response (EC50) in data set [14] is 8.06 µM (active); in data set [15], 34.9 µM (active); in [16] it was 33 µM (active).
Usually Ki stands for the equilibrium dissociation constant of an inhibitor or competing ligand from its target. As to `Cc1c(C(=O)NC2CCCc3ccccc32)oc2ccc(S(=O)(=O)N3CCOCC3)cc12` (stereo not given), the Ki at fMet-Leu-Phe receptor is 37 µM (inactive). Besides, the half-maximal activity concentration (AC50) entry on Cytochrome P450 3A4 and on Cytochrome P450 2D6 was “inconclusive” in each case.
Take `CCOC(=O)N1CCN(Cc2nc3c(c(=O)[nH]c(=O)n3C)n2Cc2ccccc2C)CC1`: the AC50 at Cytochrome P450 2C9 was 35.5 µM (inconclusive); at Cytochrome P450 2C19 it was 20 µM (inconclusive); on Cytochrome P450 1A2, “inconclusive”.
